According to patent US12285392B2, “Method for modulating metabolism” (Brightseed, Inc., priority 2018, dated 2025):
One block for each compound: values may come before it.

How the values were obtained:
HNF4α [1] = biological target: T1, HNF4α (Homo sapiens, UniProt P41235); experiment: Insulin promoter activity assay in T6PNE cells (HNF4α activity); format: cell-based; conditions: for HNF4α modulation in screening: screening in the HNF4α assay
T1 construct: endogenous in cells; host or cells: T6PNE cells
T1 sequence (P41235 1-474): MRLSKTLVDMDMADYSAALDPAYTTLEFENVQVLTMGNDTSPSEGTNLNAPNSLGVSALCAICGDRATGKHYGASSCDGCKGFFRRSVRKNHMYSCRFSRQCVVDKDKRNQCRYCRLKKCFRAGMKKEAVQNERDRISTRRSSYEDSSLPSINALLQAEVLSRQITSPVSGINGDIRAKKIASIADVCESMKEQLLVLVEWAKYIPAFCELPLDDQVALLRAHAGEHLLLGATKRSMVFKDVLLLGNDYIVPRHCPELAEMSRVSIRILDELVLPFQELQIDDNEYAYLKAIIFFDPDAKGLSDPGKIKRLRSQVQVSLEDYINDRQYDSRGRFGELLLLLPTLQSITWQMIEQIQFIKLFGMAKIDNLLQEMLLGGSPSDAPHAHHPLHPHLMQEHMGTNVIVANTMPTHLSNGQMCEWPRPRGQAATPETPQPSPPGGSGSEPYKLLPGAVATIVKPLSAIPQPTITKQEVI
Experimental: Insulin Promoter Activity. T6PNE cells (Kiselyuk, et al. (2012) Chem Biol. 19(7):806-818; Kiselyuk, et al. (2010) J. Biomol. Screen 15(6):663-70) are seeded at 2000 cells per well in 384-well tissue culture plates in the presence of 1 μM tamoxifen and 0.03 mM palmitate. After a 24-hour incubation, a compound or extract of the invention is added to the cells. Forty-eight hours after compound or extract addition, cells are fixed in 4% paraformaldehyde and stained with DAPI. Blue (DAPI) and green (human insulin promoter driving GFP) channels are imaged.
Inhibition of HNF4α GFP Expression. Using the insulin promoter assay described herein, activity of HNF4α was assessed in the presence of BI-6015 (0, 2.5, 5 μM), a known antagonist of HNF4α (Kiselyuk, et al. (2012) Chem. Biol. 19(7):806-818), in combination with N-trans-caffeoyltyramine (0, 5, 10, 20 μM).
Given the role of HNF4α in maintaining a heal thy metabolism in humans, test compounds were screened for activity as HNF4α agonists (either direct or indirect effects). Using a known insulin promoter-reporter assay, Kiselyuk and colleagues (2010. J. Biomol. Screen 15(6):663-70), screened a library of compounds for activity to promote insulin activation. […] The OTC promoter is known to be responsive to HNF4α in transient transfection assays (Inoue, et al. (2002) J. Biol. Chem. 277:25257-65).

insulin mRNA = experiment: Insulin mRNA levels by quantitative PCR; format: cell-based; conditions: FIG. 2
Experimental: (§1) Expression of Insulin and HNF4α. RNA was purified using a RNEASY® chromatographic separation and isolation kits (Qiagen), and converted to cDNA using the gScript™ cDNA SuperMix (Quanta Biosciences). Q-PCR was conducted with cDNA corresponding to 2 μg of RNA using an Opticon Real-Time System (MJ Research) and QPCR SuperMix (BioPioneer). See All mRNA values were normalized to 18S rRNA values and are expressed as fold changes over vehicle-treated control.

HNF4α mRNA = HNF4α mRNA levels by quantitative PCR; format: cell-based; conditions: FIG. 3
Experimental: as §1

estrogenic activity = experiment: Counter-screen for estrogenic activity (E47MER luciferase reporter in HeLa cells); format: cell-based, human; conditions: FIG. 5
Experimental: Counter-Screen for Estrogenic Activity. Estrogenic activity was monitored by co-transfection of a reporter plasmid containing a multimerized E-box 5′ of a minimal promoter fused to the Firefly luciferase gene (4RTK-luc) with wild-type E47 or E47MER (Kiselyuk, et al. (2010) J. Biomol. Screen 15(6):663-70). HeLa cells were transfected using polyethylenimine, 0.2 μg 4RTK-Luc plasmid and either 0.3 μg of human E47, E47MER or pMSCVhph vector in 50 μl of serum-free Dulbecco's modification of Eagle medium per well. Transfections included Renilla luciferase (pRL-TK) plasmid as a control for transfection efficacy. Transfection conditions were as described in the PPRE-Luc reporter assay of Kiselyuk, et al. ((2010) J. Biomol. Screen 15(6):663-70). Sixteen hours after transfection, culture media were changed and maintained for 48 hours with tamoxifen and/or compound or vehicle (DMSO). Cells were then lysed and assayed for luciferase activity using the Promega DUAL-LUCIFERASE® reporter assay kit (Promega Corp., Madison, WI), and luminescence was measured using the Veritas™ Microplate Luminometer (Turner Biosystems, Sunnyvale, CA). Data were normalized to Renilla luciferase (pRL-TK) and expressed as fold-change over vehicle alone.

HepG2 cells = experiment: Lipid clearance in HepG2 cells (steatosis assay, Oil Red O); format: cell-based; conditions: HepG2 liver cells, 20 μM
Experimental: (§2) Lipid Clearance in HepG2 and T6PNE Cells (Steatosis Assay). The steatosis assay was carried out as described (Kiselyuk, et al. (2012) Chem. Biol. 19(7):806-818) with the exception of the drug concentration, which was 20 μM for N-trans-caffeoyltyramine with 0.25 mM palmitate in HepG2 cell lines, and 10 μM of either N-trans-caffeoyltyramine, N-trans-caffeoyltyramine, or pcoumaroyltyramine, with 0.25 mM palmitate in T6PNE cell lines. Steatosis was assessed using the Oil Red 0 Method for Fats kits (Poly Scientific; Warrington, PA), per manufacturer's guidelines. Briefly, frozen tissue slides or fixed cells were incubated in neat propylene glycol for 2 minutes and Oil Red 0 solution for 15 hours for slides or 1 hour for fixed cells, differentiated in 85% propylene glycol solution for 1 minute, washed twice with distilled water and stained in Hematoxylin of 10 seconds. Slides were mounted with glycerin jelly mounting medium.

T6PNE cells = experiment: Lipid clearance in T6PNE cells (steatosis assay); format: cell-based; conditions: 10 μM, 0.25 mM palmitate
Experimental: T6PNE cells were pretreated for 1 day with 0.06 mM, 0.12 mM or 0.25 mM palmitate at which time 15 μM N-trans-caffeoyltyramine or control (DMSO) was added. Cells were harvested on day 3, 6 and 8 and subjected to staining with Nile Red and Oil Red O. Results are expressed as fold change in Nile Red staining: +palmitate/10% FBS medium (no palmitate)
as §2

pH stability assessment = format: physicochemical; conditions: pH 2, 7.4, 8.5 and 10, 37° C., 0.5 and 72 hours
Experimental: pH Stability Assessment. Individual stock solutions were prepared in DMSO at concentrations of 10 mg/mL. Four different buffer solutions were prepared to achieve solutions with a pH of 2, 7.4, 8.5 and 10. For each pH assay, 5 μL of stock solution was added to 245 μL of buffered solution to a 2 mL tube, vortexed and incubated in a 37° C. water bath. At each timepoint, 50 μL aliquots were taken, neutralized and analyzed via HPLC analysis using a DAD detector at 280 nm. The fold change of the peak area at 280 nm was analyzed for the initial and final timepoint, 0.5 and 72 hours, respectively.

[2] = Bioavailability determination in mice; format: in vivo; conditions: mouse, whole blood, 30 mg/kg; male C57BL/6 mice
Experimental: Bioavailability Determinations.
An 8 μL aliquot of blood was used for analysis.

HNF4α [3] = biological target: T1, HNF4α; conditions: Kiselyuk et al.; cited from earlier work
HNF4α [4] = biological target: T1, HNF4α; conditions: cited from earlier work

Effect on N-trans-caffeoyltyramine-mediated increases in insulin expression (HNF4α [1]; insulin promoter assay, BI-6015 0, 2.5, 5 μM, FIG. 4): inhibited
Structure (SMILES): Cc1ccc([N+](=O)[O-])cc1S(=O)(=O)n1c(C)nc2ccccc21 [BI-6015, reference compound]

HNF4α modulation in screening (HNF4α [1]): able to act as HNF4α modulators
Structure (SMILES): O=C(/C=C\c1ccc(O)c(O)c1)NCCc1ccc(O)cc1 [N-cis-caffeoyltyramine]

Structure (SMILES): O=C(/C=C/c1ccc(O)cc1)NCCc1ccc(O)c(O)c1 [N-coumaroyldopamine]
Insulin gene expression (insulin mRNA): inactive | HNF4α gene expression (HNF4α mRNA): inactive

HNF4α modulation in screening (HNF4α [1]): able to act as HNF4α modulators | pH Stability (pH stability assessment): Stable | bioavailability [2]: ~7%
Structure (SMILES): COc1cc(/C=C/C(=O)NCCc2ccc(O)cc2)ccc1O [N-trans-feruloyltyramine]
Insulin gene expression (insulin mRNA): upregulated | HNF4α gene expression (HNF4α mRNA): upregulated | Estrogenic activity (estrogenic activity): did not exhibit estrogenic activity | Clearing of fats (Oil Red O staining) (HepG2 cells): capable of clearing harmful fats from the liver | Accumulation of fats (HepG2 cells; 0.25 mM palmitate): inhibited accumulation of fats | Fat accumulation (T6PNE cells): inhibition of fat accumulation

Structure (SMILES): COc1cc(/C=C/C(=O)NCC(O)c2ccc(O)cc2)ccc1O (stereo not shown) [N-transferuloyloctopamine]
Insulin gene expression (insulin mRNA): inactive | HNF4α gene expression (HNF4α mRNA): inactive

Structure (SMILES): COc1cc(/C=C\C(=O)NCCc2ccc(O)cc2)ccc1O [cis-feruloyltyramine, reference compound]
Insulin gene expression (insulin mRNA): inactive | HNF4α gene expression (HNF4α mRNA): inactive

Structure (SMILES): CCN(CCCCc1ccccc1)CCc1ccccc1 [compound 1]
Insulin activation in insulin promoter-reporter screen (HNF4α [3]): insulin activator | HNF4α agonistic activity in OTC promoter assay (HNF4α [4]): possess HNF4α agonistic activity

Structure (SMILES): O=C(/C=C/c1ccc(O)cc1)NCC(O)c1ccc(O)cc1 (stereo not shown) [p-coumaroyloctopamine]
Insulin gene expression (insulin mRNA): inactive | HNF4α gene expression (HNF4α mRNA): inactive

pH Stability (pH stability assessment): Acid Stable
Structure (SMILES): O=C(/C=C/c1ccc(O)cc1)NCCc1ccc(O)cc1 [p-coumaroyltyramine]
